This passage reports IC50 results from ChEMBL document CHEMBL1817546, “The synthesized novel fluorinated compound (LJJ-10) induces death receptor- and mitochondria-dependent apoptotic cell death in the human osteogenic sarcoma U-2 OS cells” (Eur J Med Chem, 2011).

Where only a bound is given, the exact number is not on record here.

Format in all cases: functional, cell-based
One test relates to U2OS. Kind of test: Cytotoxicity against human U2OS cells after 48 hrs by MTT assay. A general note: Tetrazolium dyes change colour on reduction, which living cells bring about.
Another test relates to U-937. Kind of test: Cytotoxicity against human U937 cells after 48 hrs by MTT assay. The following applies: U-937, 48 h.
A further test relates to MCF7. In words: Cytotoxicity against human MCF7 cells after 48 hrs by MTT assay. Particulars: MCF7, 48 h.
The subject of a further test is MDA-MB-231. Kind of test: Cytotoxicity against human MDA-MB-231 cells after 48 hrs by MTT assay. The following applies: MDA-MB-231, 48 h.
The test system of the next test is COLO 205. In words: Cytotoxicity against human COLO205 cells after 48 hrs by MTT assay. Particulars: COLO 205, 48 h.
Another test has as its system HL-60. Kind of test: Cytotoxicity against human HL60 cells after 48 hrs by MTT assay. The following applies: HL-60, 48 h.
The nature of test [1]: Cytotoxicity against human HT29-AK cells after 48 hrs by MTT assay.

As a reminder, the IC50 is the concentration needed to halve the response being measured. A low value points to greater potency in that assay. Regarding `Fc1cccc(Nc2nc(-c3cccc(F)c3)nc3ccc(F)cc23)c1`, the IC50 in the test on U2OS is 49.6 µM; in the test on U-937, 42.3 µM; with MCF7, 48.7 µM; in the test on MDA-MB-231, 47.6 µM; in the test on COLO 205, above 50 µM; with HL-60 it was 43.1 µM. In test [1], the IC50 is above 50 µM.

`Fc1cccc(-c2nc(Nc3ccccc3)c3ccccc3n2)c1`: the half-maximal inhibitory concentration (IC50) with U2OS, in the test with U-937, in the test with MCF7, in the test with MDA-MB-231, with COLO 205 and with HL-60 was above 50 µM in each case. Besides, the IC50 in test [1] is above 50 µM.

`Nc1cccc(Nc2nc(-c3cccc(F)c3)nc3ccc(F)cc23)c1`: the IC50 was 49.6 µM in the test on U2OS; above 50 µM in the test on U-937; above 50 µM in the test on MCF7; above 50 µM in the test on MDA-MB-231; above 50 µM in the test on COLO 205; above 50 µM with HL-60. In addition, the IC50 in test [1] is above 50 µM.

As to `Fc1ccc2nc(-c3ccccc3)nc(Nc3ccccc3)c2c1`, the IC50 in the test with U2OS, in the test with U-937, with MCF7, with MDA-MB-231, in the test on COLO 205 and in the test on HL-60 was above 50 µM in each case. Moreover, the IC50 in test [1] is above 50 µM.

As to `Oc1ccc(Nc2nc(-c3cccc(F)c3)nc3ccc(F)cc23)cc1`, the 50% inhibitory concentration (IC50) with U2OS, in the test with U-937, in the test on MCF7, with MDA-MB-231, with COLO 205 and in the test on HL-60 was above 50 µM in each case. Further, in test [1], the half-maximal inhibitory concentration (IC50) is above 50 µM.

With `Fc1cccc(-c2nc(Nc3ccccc3F)c3cc(F)ccc3n2)c1`, the IC50 with U2OS, with U-937, in the test on MCF7, in the test on MDA-MB-231, with COLO 205 and in the test with HL-60 was above 50 µM throughout. In test [1], this molecule registered an IC50 above 50 µM.

For the molecule `Oc1ccccc1Nc1nc(-c2cccc(F)c2)nc2ccc(F)cc12`, the IC50 in the test on U2OS is 41.4 µM; in the test on U-937, 46.2 µM; in the test on MCF7 it was above 50 µM; with MDA-MB-231 it was above 50 µM; in the test on COLO 205, above 50 µM; with HL-60, 44.4 µM. The same molecule yielded an IC50 in test [1] above 50 µM.

For the molecule `c1ccc(Nc2nc(-c3ccccc3)nc3ccccc23)cc1`, the IC50 in the test with U2OS, in the test on U-937, in the test with MCF7, in the test with MDA-MB-231, with COLO 205 and with HL-60 was above 50 µM throughout. Further, the IC50 in test [1] is above 50 µM.

Take `Fc1cccc(-c2nc(Nc3ccc(Cl)cc3)c3cc(F)ccc3n2)c1`: the half-inhibitory concentration (IC50) with U2OS is 38.4 µM; in the test with U-937, 32.6 µM; in the test with MCF7 it was above 50 µM; in the test on MDA-MB-231 it was above 50 µM; in the test on COLO 205, 32.6 µM; in the test with HL-60 it was 45.7 µM. For the same molecule, it took 40.3 µM to reach half-maximal inhibition in test [1] (IC50).

Consider `Fc1cccc(-c2nc(Nc3ccccc3Br)c3cc(F)ccc3n2)c1`, for which the IC50 in the test on U2OS, in the test with U-937, in the test with MCF7, with MDA-MB-231, in the test on COLO 205 and with HL-60 was above 50 µM in each case. This molecule came in with an IC50 in test [1] above 50 µM.

With `Fc1cccc(-c2nc(Nc3cccc(Cl)c3)c3cc(F)ccc3n2)c1`, the IC50 in the test on U2OS, in the test with U-937, in the test with MCF7, in the test on MDA-MB-231, in the test on COLO 205 and in the test on HL-60 was above 50 µM throughout. This molecule registered an IC50 in test [1] above 50 µM.

`Nc1ccc(Nc2nc(-c3cccc(F)c3)nc3ccc(F)cc23)cc1`: the IC50 is 44.1 µM in the test on U2OS; above 50 µM in the test with U-937; above 50 µM in the test on MCF7; above 50 µM in the test with MDA-MB-231; above 50 µM in the test with COLO 205; above 50 µM in the test on HL-60. This molecule yielded an IC50 in test [1] above 50 µM.

`Fc1cccc(-c2nc(Nc3ccccc3)c3cc(F)ccc3n2)c1`: the IC50 is 47.6 µM in the test with U2OS; 45.5 µM with U-937; 49.7 µM in the test with MCF7; 47.8 µM in the test on MDA-MB-231; 49.7 µM with COLO 205; 48.3 µM with HL-60. In addition, in test [1], the IC50 stood at 48.3 µM.

As for `Cc1ccc(Nc2nc(-c3cccc(F)c3)nc3ccc(F)cc23)cc1`, the IC50 in the test with U2OS, in the test on U-937, with MCF7, in the test with MDA-MB-231, with COLO 205 and in the test on HL-60 was above 50 µM in each case. In addition, in test [1], the IC50 was above 50 µM.

Regarding `Fc1cccc(-c2nc(Nc3ccc(Br)cc3)c3cc(F)ccc3n2)c1`, the IC50 with U2OS, in the test on U-937, in the test with MCF7, with MDA-MB-231, in the test with COLO 205 and in the test with HL-60 was above 50 µM throughout. The IC50 in test [1] is above 50 µM.

For `Cc1ccccc1Nc1nc(-c2cccc(F)c2)nc2ccc(F)cc12`, the IC50 in the test with U2OS, with U-937, with MCF7, in the test on MDA-MB-231, with COLO 205 and with HL-60 was above 50 µM throughout. In test [1], this molecule came in with an IC50 above 50 µM.

Regarding `Nc1ccccc1Nc1nc(-c2cccc(F)c2)nc2ccc(F)cc12`, the IC50 is 37.9 µM in the test with U2OS; 47.2 µM in the test on U-937; above 50 µM with MCF7; above 50 µM in the test with MDA-MB-231; above 50 µM in the test on COLO 205; 41.3 µM with HL-60. Moreover, the IC50 in test [1] is above 50 µM.

Take `COc1ccc(Nc2nc(-c3cccc(F)c3)nc3ccc(F)cc23)cc1`: the IC50 in the test with U2OS was 32.3 µM; in the test on U-937, 41.1 µM; in the test on MCF7, 48.4 µM; in the test on MDA-MB-231, 47.3 µM; in the test with COLO 205, 46.8 µM; in the test with HL-60, 38.6 µM. Inhibition in test [1] was half-maximal at 42.3 µM (IC50).

On to `Fc1cccc(-c2nc(Nc3ccccc3Cl)c3cc(F)ccc3n2)c1`, for which the IC50 with U2OS, with U-937, with MCF7, in the test on MDA-MB-231, with COLO 205 and with HL-60 was above 50 µM throughout. The same molecule gave an IC50 in test [1] above 50 µM.

In the case of `Fc1cccc(-c2nc(Nc3cccc(Br)c3)c3cc(F)ccc3n2)c1`, the IC50 with U2OS, in the test on U-937, with MCF7, in the test with MDA-MB-231, with COLO 205 and with HL-60 was above 50 µM in each case. The same molecule had an IC50 in test [1] above 50 µM.

As for `COc1ccccc1Nc1nc(-c2cccc(F)c2)nc2ccc(F)cc12`, the IC50 with U2OS, in the test on U-937, in the test with MCF7, with MDA-MB-231, in the test with COLO 205 and in the test on HL-60 was above 50 µM each time. The same molecule registered an IC50 in test [1] above 50 µM.

For the molecule `Cc1cccc(Nc2nc(-c3cccc(F)c3)nc3ccc(F)cc23)c1`, the IC50 in the test on U2OS, with U-937, with MCF7, with MDA-MB-231, in the test with COLO 205 and in the test on HL-60 was above 50 µM throughout. Besides, the IC50 in test [1] is above 50 µM.
